Experimental data reported in US20230390267A1, “TREATMENT REGIMENS FOR EARLY IDIOPATHIC PARKINSON'S DISEASE” (BIAL - PORTELA & CA., S.A., priority 2020, published 2023).

What was measured:
[1] = system: PD patients with motor fluctuations; settings: cited from earlier work
[2] = system: patients with early idiopathic Parkinson's disease treated with levodopa/DDCI, with no signs of motor complications; test: EPSILON Phase III study, safety (treatment emergent adverse events)
Source text: The term “treatment-emergent adverse event” is defined as any event not present before exposure to the study drug or any event already present that worsens in either intensity or frequency after first intake of study drug until 2 weeks after last intake of the study drug.
The factors evaluated include: • Treatment-emergent adverse events (TEAEs) including serious adverse events (SAEs) • Laboratory safety tests (biochemistry, hematology, coagulation and urinalysis) • Physical and neurological examinations • Vital signs • 12-lead ECG readings • Columbia-Suicide Severity Rating Scale (C-SSRS) • Modified Minnesota Impulsive Disorders Interview (mMIDI)

Question: What does the source list for `Cc1c(Cl)c(C)[n+]([O-])c(Cl)c1-c1noc(-c2cc(O)c(O)c([N+](=O)[O-])c2)n1` [opicapone, 2,5-dichloro-3-[5-(3,4-dihydroxy-5-nitrophenyl)-1,2,4-oxadiazol-3-yl]-4,6-dimethylpyridine 1-oxide]?
Answer: treatment difference in OFF time for opicapone 50 mg versus entacapone ([1]; p=0.05): 26.2 min; additional OFF-time reduction after switch from entacapone ([1]; patients that ended open-label with opicapone 50 mg): 68 min; Any Serious TEAE; % ([2]; double blind phase, N = 177): (5.1) %; Any Serious TEAE; n ([2]; double blind phase, N = 177): 9; Any TEAE by Maximum Severity: Mild; % ([2]; double blind phase, N = 177): (29.9) %; Any TEAE by Maximum Severity: Mild; n ([2]; double blind phase, N = 177): 53; Any TEAE by Maximum Severity: Moderate; % ([2]; double blind phase, N = 177): (14.1) %; Any TEAE by Maximum Severity: Moderate; n ([2]; double blind phase, N = 177): 25; Any TEAE by Maximum Severity: Severe; % ([2]; double blind phase, N = 177): (3.4) %; Any TEAE by Maximum Severity: Severe; n ([2]; double blind phase, N = 177): 6; Any TEAE by Worst Relationship: Definitely Related; % ([2]; double blind phase, N = 177): (1.1) %; Any TEAE by Worst Relationship: Definitely Related; n ([2]; double blind phase, N = 177): 2; Any TEAE by Worst Relationship: Not Related (first line, total incl. Unlikely Related); % ([2]; double blind phase, N = 177): (37.3) %; Any TEAE by Worst Relationship: Not Related (first line, total incl. Unlikely Related); n ([2]; double blind phase, N = 177): 66; Any TEAE by Worst Relationship: Not Related (second line, sub-category); % ([2]; double blind phase, N = 177): (36.2) %; Any TEAE by Worst Relationship: Not Related (second line, sub-category); n ([2]; double blind phase, N = 177): 64; Any TEAE by Worst Relationship: Possibly Related; % ([2]; double blind phase, N = 177): (5.6) %; Any TEAE by Worst Relationship: Possibly Related; n ([2]; double blind phase, N = 177): 10; Any TEAE by Worst Relationship: Probably Related; % ([2]; double blind phase, N = 177): (3.4) %; Any TEAE by Worst Relationship: Probably Related; n ([2]; double blind phase, N = 177): 6; Any TEAE by Worst Relationship: Related; % ([2]; double blind phase, N = 177): (10.2) %; Any TEAE by Worst Relationship: Related; n ([2]; double blind phase, N = 177): 18; Any TEAE by Worst Relationship: Unlikely Related; % ([2]; double blind phase, N = 177): (1.1) %; Any TEAE by Worst Relationship: Unlikely Related; n ([2]; double blind phase, N = 177): 2; Any TEAE leading to Death; % ([2]; double blind phase, N = 177): (0.6) %; Any TEAE leading to Death; n ([2]; double blind phase, N = 177): 1; Any TEAE leading to IMP interruption; % ([2]; double blind phase, N = 177): (0.6) %; Any TEAE leading to IMP interruption; n ([2]; double blind phase, N = 177): 1; Any TEAE leading to Withdrawal; % ([2]; double blind phase, N = 177): (1.1) %; Any TEAE leading to Withdrawal; n ([2]; double blind phase, N = 177): 2; Any TEAE; % ([2]; double blind phase, N = 177): (47.5) %; Any TEAE; n ([2]; double blind phase, N = 177): 84; TEAE Arthralgia; % ([2]; double blind phase, N = 177): (2.3) %; TEAE Arthralgia; n ([2]; double blind phase, N = 177): 4; TEAE Back pain; % ([2]; double blind phase, N = 177): (4.5) %; TEAE Back pain; n ([2]; double blind phase, N = 177): 8; TEAE Dizziness; % ([2]; double blind phase, N = 177): (1.1) %; TEAE Dizziness; n ([2]; double blind phase, N = 177): 2; TEAE Dyskinesia; % ([2]; double blind phase, N = 177): (1.7) %; TEAE Dyskinesia; n ([2]; double blind phase, N = 177): 3; TEAE Fall; % ([2]; double blind phase, N = 177): (2.3) %; TEAE Fall; n ([2]; double blind phase, N = 177): 4; TEAE Fatigue; % ([2]; double blind phase, N = 177): (2.8) %; TEAE Fatigue; n ([2]; double blind phase, N = 177): 5; TEAE Gastrointestinal disorders; % ([2]; double blind phase, N = 177): (6.8) %; TEAE Gastrointestinal disorders; n ([2]; double blind phase, N = 177): 12; TEAE General disorders; % ([2]; double blind phase, N = 177): (7.9) %; TEAE General disorders; n ([2]; double blind phase, N = 177): 14; TEAE Headache; % ([2]; double blind phase, N = 177): (0.6) %; TEAE Headache; n ([2]; double blind phase, N = 177): 1; TEAE Hypertension; % ([2]; double blind phase, N = 177): (2.8) %; TEAE Hypertension; n ([2]; double blind phase, N = 177): 5; TEAE Infections and Infestations; % ([2]; double blind phase, N = 177): (15.8) %; TEAE Infections and Infestations; n ([2]; double blind phase, N = 177): 28; TEAE Injury, poisoning and procedural complications; % ([2]; double blind phase, N = 177): (3.4) %; TEAE Injury, poisoning and procedural complications; n ([2]; double blind phase, N = 177): 6; TEAE Insomnia; % ([2]; double blind phase, N = 177): (2.3) %; TEAE Insomnia; n ([2]; double blind phase, N = 177): 4; TEAE Musculoskeletal and connective tissue disorders; % ([2]; double blind phase, N = 177): (10.2) %; TEAE Musculoskeletal and connective tissue disorders; n ([2]; double blind phase, N = 177): 18; TEAE Nausea; % ([2]; double blind phase, N = 177): (2.3) %; TEAE Nausea; n ([2]; double blind phase, N = 177): 4; TEAE Nervous System Disorders; % ([2]; double blind phase, N = 177): (13.6) %; TEAE Nervous System Disorders; n ([2]; double blind phase, N = 177): 24; TEAE Oedema peripheral; % ([2]; double blind phase, N = 177): (2.3) %; TEAE Oedema peripheral; n ([2]; double blind phase, N = 177): 4; TEAE On and off phenomenon; % ([2]; double blind phase, N = 177): (4.5) %; TEAE On and off phenomenon; n ([2]; double blind phase, N = 177): 8; TEAE Psychiatric disorders; % ([2]; double blind phase, N = 177): (7.9) %; TEAE Psychiatric disorders; n ([2]; double blind phase, N = 177): 14; TEAE Tremor; % ([2]; double blind phase, N = 177): (1.1) %; TEAE Tremor; n ([2]; double blind phase, N = 177): 2; TEAE Upper respiratory tract infection; % ([2]; double blind phase, N = 177): (0.6) %; TEAE Upper respiratory tract infection; n ([2]; double blind phase, N = 177): 1; TEAE Urinary tract infection; % ([2]; double blind phase, N = 177): (2.3) %; TEAE Urinary tract infection; n ([2]; double blind phase, N = 177): 4; TEAE Vascular disorders; % ([2]; double blind phase, N = 177): (5.6) %; TEAE Vascular disorders; n ([2]; double blind phase, N = 177): 10; TEAE Vomiting; % ([2]; double blind phase, N = 177): (1.7) %; TEAE Vomiting; n ([2]; double blind phase, N = 177): 3; increase in treatment emergent adverse events including nervous system disorders such as dyskinesia ([2]; opicapone-treated patients vs placebo): no increase; tolerability ([2]; patients without clinically diagnosed motor complications): well tolerated
